Measured values: patent US20260347353A1, “INDOLIZINE DERIVATIVES FOR TREATING CANCER” (Antares Therapeutics, Inc., priority 2022, published 2026)

Experiments:
[1] = molecular target: T1, p53 Y220C mutant protein (amino acid residues 94-293) (Homo sapiens, UniProt P04637, Y220C); test: Surface Plasmon Resonance (SPR) assay, p53 Y220C Kd_kinetic; details: multi-cycle kinetics, 16 or 20 °C, pH 7.5, 1:1 binding model
T1 construct: p53 Y220C mutant protein (amino acid residues 94-293)
Protocol: SPR experiments are performed on a Biacore 8K instrument. […] Compounds are 2-fold, 7-point serial diluted; the top concentration varies depending on the potency. Compound binding affinities are measured in the multi-cycle kinetics mode, at 30 μL/min flow rate with 60 seconds association time and 120 seconds dissociation time. The running buffer contains 50 mM Tris, pH 7.5, 100 mM NaCl, 1 mM DTT, 0.01% Brij35, 0.05% Tween-20 and 1% DMSO. The assay temperature is maintained at 16 or 20 °C and data are fit into the 1:1 binding model using the Biacore Insight Evaluation software.

[2] = molecular target: p53 Y220C (Homo sapiens, UniProt P04637, Y220C); test: Luciferase Reporter Assay, p53 Y220C (NCIH1299 cells with inducible p53 Y220C and p53 response element-luciferase); type: cell-based; details: 6 hour compound treatment, read-out: Luc P53 Y220C AC50
Protocol: Luciferase reporter (Luc) driven by p53 response element (LTV-p53-Luc (SKU #: LTLR007); G&P Biosciences) and inducible p53 Y220C construct (Tet-One inducible expression system; Takara) were stably expressed in NCIH1299 cells by lentiviral transduction. The cells were then used for p53 reporter assay. 5,000 cells were seeded in each well of 384 plate and cultured in 0.5 ug/mL doxycycline (D3072; Sigma) containing medium for 24 hours before compound treatment. After 6 hour of compound treatment, equal volume of One-Glo reagent (E6110; Promega) was added to each well and the plate was incubated for 5 minutes with shaking at room temperature. The luciferase activity was immediately measured with PheraStar microplate reader. Luciferase activity was stimulated by 10 uM of a tool compound as positive control and AC50 was calculated.

[3] = tested on: NUGC3 cells (p53 Y220C); test: Cell Proliferation Assay (CellTiter-Glo), NUGC3 p53 Y220C; type: cell-based; details: Homo sapiens, NUGC-3, 120 h, 5 days, read-out: CTG NUGC3 P53 Y220C IC50
Protocol: (§1) Inducible p53 Y220C and R273H constructs (Tet-One inducible expression system; Takara) were stably expressed in NCIH1299 cells by lentiviral transduction. NUGC3, A549, BxPC3, T3M4, HuH7, HCC2935, MFE296, NCIH1299, NCIH1299-inducible p53 Y220C, and NCIH1299-inducible p53 R273H cell lines were used for cell proliferation assay. 250-500 cells were seeded in each well of 384 plate and then compounds were dispensed into each well using Echo or Tecan. After 5 days of incubation, equal volume of CellTiter-Glo reagent (G7570; Promega) was added into each well and the plate was incubated at room temperature for 10 minutes with shaking. The luminescent signal was measured by PheraStar microplate reader and IC50 was calculated.

[4] = tested on: NCIH1299-inducible p53 Y220C cells; test: Cell Proliferation Assay (CellTiter-Glo), NCIH1299-inducible p53 Y220C; type: cell-based; details: Homo sapiens, NCI-H1299, 120 h, 5 days, read-out: CTG H1299 P53 Y220C IC50
Protocol: as §1

T1 sequence (P04637 94-293, stated change not applied): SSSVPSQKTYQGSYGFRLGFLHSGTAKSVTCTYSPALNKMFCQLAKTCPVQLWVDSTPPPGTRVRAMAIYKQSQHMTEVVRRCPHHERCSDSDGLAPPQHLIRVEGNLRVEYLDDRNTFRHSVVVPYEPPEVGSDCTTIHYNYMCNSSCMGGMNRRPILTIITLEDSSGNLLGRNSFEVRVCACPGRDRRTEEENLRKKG

Row | Compound | Kd [1] [µM] | AC50 [2] [µM] | IC50 [3] [µM] | IC50 [4] [µM]
1 | C[C@@H](NC(=O)C1CC1)c1nc(-c2cc3c(N[C@@H]4CCN(C)C[C@@H]4F)cccn3c2SC(F)(F)F)no1 (relative stereo) [Example 51, N-[(1R*)-1-[3-(8-{[(3S,4R)-3-fluoro-1-methylpiperidin-4-yl]amino}-3-[(trifluoromethyl)sulfanyl]indolizin-2-yl)-1,2,4-oxadiazol-5-yl]ethyl]cyclopropanecarboxamide] | 0.01 to 0.1 | ≥ 3 | ≥ 3 | ≥ 3
2 | CN1CC[C@@H](Nc2cccn3c(SC(F)(F)F)c(-c4noc(CNC(=O)c5cnn(C(C)(C)C)c5)n4)cc23)[C@@H](F)C1 [Example 2, 1-tert-butyl-N-{[3-(8-{[(3S,4R)-3-fluoro-1-methylpiperidin-4-yl]amino}-3-[(trifluoromethyl)sulfanyl]indolizin-2-yl)-1,2,4-oxadiazol-5-yl]methyl}pyrazole-4-carboxamide] | < 0.01 | < 0.75 | < 0.75 | < 0.75
3 | CN1CC[C@@H](Nc2cccn3c(SC(F)(F)F)c(-c4noc(CNC(=O)C5CC5)n4)cc23)[C@@H](F)C1 [Example 3, N-{[3-(8-{[(3S,4R)-3-fluoro-1-methylpiperidin-4-yl]amino}-3-[(trifluoromethyl)sulfanyl]indolizin-2-yl)-1,2,4-oxadiazol-5-yl]methyl}cyclopropanecarboxamide] | < 0.01 | < 0.75 | < 0.75 | < 0.75
4 | CN1CC[C@@H](Nc2cccn3c(SC(F)(F)F)c(-c4nsc(CNC(=O)C5CC5)n4)cc23)[C@@H](F)C1 [Example 4, N-{[3-(8-{[(3S,4R)-3-fluoro-1-methylpiperidin-4-yl]amino}-3-[(trifluoromethyl)sulfanyl]indolizin-2-yl)-1,2,4-thiadiazol-5-yl]methyl}cyclopropanecarboxamide] | 0.01 to 0.1 | ≥ 3 | ≥ 3 | ≥ 3
5 | CN1CC[C@@H](Nc2cccn3c(SC(F)(F)F)c(-c4nsc(CNC(=O)c5cnn(C(C)(C)C)c5)n4)cc23)[C@@H](F)C1 [Example 5, 1-tert-butyl-N-{[3-(8-{[(3S,4R)-3-fluoro-1-methylpiperidin-4-yl]amino}-3-[(trifluoromethyl)sulfanyl]indolizin-2-yl)-1,2,4-thiadiazol-5-yl]methyl}pyrazole-4-carboxamide] | 0.1 to 1 | ≥ 3 | ≥ 3 | ≥ 3
6 | CN1CC[C@@H](Nc2cccn3c(SC(F)(F)F)c(-c4nsc(CNC(=O)c5ccn(C(C)(C)C)c5)n4)cc23)[C@@H](F)C1 [Example 6, 1-tert-butyl-N-{[3-(8-{[(3S,4R)-3-fluoro-1-methylpiperidin-4-yl]amino}-3-[(trifluoromethyl)sulfanyl]indolizin-2-yl)-1,2,4-thiadiazol-5-yl]methyl}pyrrole-3-carboxamide] | ≥ 1 | ≥ 3 | ≥ 3 | ≥ 3
7 | CN1CC[C@@H](Nc2cccn3c(SC(F)(F)F)c(-c4noc(CNC(=O)c5ccn(C(C)(C)C)c5)n4)cc23)[C@@H](F)C1 [Example 7, 1-tert-butyl-N-{[3-(8-{[(3S,4R)-3-fluoro-1-methylpiperidin-4-yl]amino}-3-[(trifluoromethyl)sulfanyl]indolizin-2-yl)-1,2,4-oxadiazol-5-yl]methyl}pyrrole-3-carboxamide] | < 0.01 | < 0.75 | < 0.75 | < 0.75
8 | CN1CC[C@@H](Nc2cccn3c(SC(F)(F)F)c(-c4noc(CNC(=O)C5CC(O)C5)n4)cc23)[C@@H](F)C1 (stereo partly drawn) [Example 8, (1r,3r)-N-{[3-(8-{[(3S,4R)-3-fluoro-1-methylpiperidin-4-yl]amino}-3-[(trifluoromethyl)sulfanyl]indolizin-2-yl)-1,2,4-oxadiazol-5-yl]methyl}-3-hydroxycyclobutane-1-carboxamide] | < 0.01 | 1.5 to 3 | 1.5 to 3 | 0.75 to 1.5
9 | COc1ccc2n[nH]c(CC(=O)NCc3nc(-c4cc5c(N[C@@H]6CCN(C)C[C@@H]6F)cccn5c4SC(F)(F)F)no3)c2c1 [Example 9, N-{[3-(8-{[(3S,4R)-3-fluoro-1-methylpiperidin-4-yl]amino}-3-[(trifluoromethyl)sulfanyl]indolizin-2-yl)-1,2,4-oxadiazol-5-yl]methyl}-2-(5-methoxy-1H-indazol-3-yl)acetamide] | 0.1 to 1 | ≥ 3 | 1.5 to 3 | 1.5 to 3
10 | CN1CC[C@@H](Nc2cccn3c(SC(F)(F)F)c(-c4noc(CNC(=O)C5CC(F)(F)C5)n4)cc23)[C@@H](F)C1 [Example 10, 3,3-difluoro-N-{[3-(8-{[(3S,4R)-3-fluoro-1-methylpiperidin-4-yl]amino}-3-[(trifluoromethyl)sulfanyl]indolizin-2-yl)-1,2,4-oxadiazol-5-yl]methyl}cyclobutane-1-carboxamide] |  | 1.5 to 3 | ≥ 3 | ≥ 3
11 | CN1CC[C@@H](Nc2cccn3c(SC(F)(F)F)c(-c4noc(CNC(=O)[C@@H]5COCCO5)n4)cc23)[C@@H](F)C1 [Example 11, (2S)—N-{[3-(8-{[(3S,4R)-3-fluoro-1-methylpiperidin-4-yl]amino}-3-[(trifluoromethyl)sulfanyl]indolizin-2-yl)-1,2,4-oxadiazol-5-yl]methyl}-1,4-dioxane-2-carboxamide] | < 0.01 | 0.75 to 1.5 | 0.75 to 1.5 | 0.75 to 1.5
12 | CN1CC[C@@H](Nc2cccn3c(SC(F)(F)F)c(-c4noc(CNC(=O)c5cnc(N(C)C)o5)n4)cc23)[C@@H](F)C1 [Example 12, 2-(dimethylamino)-N-{[3-(8-{[(3S,4R)-3-fluoro-1-methylpiperidin-4-yl]amino}-3-[(trifluoromethyl)sulfanyl]indolizin-2-yl)-1,2,4-oxadiazol-5-yl]methyl}-1,3-oxazole-5-carboxamide] | < 0.01 | < 0.75 | < 0.75 | < 0.75
13 | CN1CC[C@@H](Nc2cccn3c(SC(F)(F)F)c(-c4noc(CNC(=O)c5cnc(C(C)(C)C)o5)n4)cc23)[C@@H](F)C1 [Example 13, 2-tert-butyl-N-{[3-(8-{[(3S,4R)-3-fluoro-1-methylpiperidin-4-yl]amino}-3-[(trifluoromethyl)sulfanyl]indolizin-2-yl)-1,2,4-oxadiazol-5-yl]methyl}-1,3-oxazole-5-carboxamide] | < 0.01 | < 0.75 | < 0.75 | < 0.75
14 | CN1CC[C@@H](Nc2cccn3c(SC(F)(F)F)c(-c4noc(CNC(=O)C5(NC(=O)OC(C)(C)C)CC5)n4)cc23)[C@@H](F)C1 [Example 22, tert-butyl N-[1-({[3-(8-{[(3S,4R)-3-fluoro-1-methylpiperidin-4-yl]amino}-3-[(trifluoromethyl)sulfanyl]indolizin-2-yl)-1,2,4-oxadiazol-5-yl]methyl}carbamoyl)cyclopropyl]carbamate] |  | ≥ 3 | 1.5 to 3 | ≥ 3
15 | CN1CC[C@@H](Nc2cccn3c(SC(F)(F)F)c(-c4noc(CNC(=O)C5(C#N)CC5)n4)cc23)[C@@H](F)C1 [Example 28, 1-cyano-N-{[3-(8-{[(3S,4R)-3-fluoro-1-methylpiperidin-4-yl]amino}-3-[(trifluoromethyl)sulfanyl]indolizin-2-yl)-1,2,4-oxadiazol-5-yl]methyl}cyclopropane-1-carboxamide] |  | < 0.75 | < 0.75 | < 0.75
16 | CN1CC[C@@H](Nc2cccn3c(SC(F)(F)F)c(-c4cc(CNC(=O)c5cnn(C(C)(C)C)c5)no4)cc23)[C@@H](F)C1 [Example 89] | < 0.01 | < 0.75 | < 0.75 | 
17 | CN1CC[C@@H](Nc2cccn3c(SC(F)(F)F)c(-c4noc(CNC(=O)c5nsc(N(C)C)n5)n4)cc23)[C@@H](F)C1 [Example 93] | < 0.01 | < 0.75 | < 0.75 | 
18 | CN1CC[C@@H](Nc2cccn3c(SC(F)(F)F)c(-c4noc(CNC(=O)c5ccn(C6(C)CCOCC6)c5)n4)cc23)[C@@H](F)C1 [Example 94] | < 0.01 | < 0.75 | < 0.75 | 
19 | Cc1noc(C(=O)NCc2nc(-c3cc4c(N[C@@H]5CCN(C)C[C@@H]5F)cccn4c3SC(F)(F)F)no2)n1 [Example 98] | < 0.01 | 0.75 to 1.5 | 0.75 to 1.5 | 
